Measured values as given in ChEMBL document CHEMBL5357013, “Identification of Spiro[chromene-2,4'-piperidine]s as Potent, Selective, and Gq-Biased 5-HT2C Receptor Partial Agonists” (ACS Med Chem Lett, 2024).
Active and inactive are the calls of the source. The calls are words filed in the database; no cut-off is given here.

What was measured:
[1] = target: T1, 5-hydroxytryptamine receptor 2C (Homo sapiens) (UniProt P28335); test: Partial agonist activity at human 5-HT2CR expressed in human Flp-In-T-REx-293 cells assessed as increase in calcium flux by measuring maximal efficacy incubated for 60 mins followed by incubation for 30 mins in dark by Flou-4 dye based FLIPR assay relative to control; type: functional, cell-based; details: time 90.0 min
T1 sequence (whole entry): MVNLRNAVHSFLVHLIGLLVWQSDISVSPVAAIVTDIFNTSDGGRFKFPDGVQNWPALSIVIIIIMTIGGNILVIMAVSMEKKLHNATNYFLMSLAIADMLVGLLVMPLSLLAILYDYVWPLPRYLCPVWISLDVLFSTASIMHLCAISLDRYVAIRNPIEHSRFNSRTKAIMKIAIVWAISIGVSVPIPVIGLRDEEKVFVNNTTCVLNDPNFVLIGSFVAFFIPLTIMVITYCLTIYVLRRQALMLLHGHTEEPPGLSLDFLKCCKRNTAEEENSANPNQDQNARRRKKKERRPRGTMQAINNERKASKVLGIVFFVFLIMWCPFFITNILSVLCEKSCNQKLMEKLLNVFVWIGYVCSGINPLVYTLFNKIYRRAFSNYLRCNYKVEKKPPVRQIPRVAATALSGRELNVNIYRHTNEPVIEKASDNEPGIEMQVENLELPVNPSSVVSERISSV

[2] = target: 5-hydroxytryptamine receptor 2A (Homo sapiens) (UniProt P28223); test: Partial agonist activity at human 5-HT2AR expressed in human Flp-In-T-REx-293 cells assessed as increase in calcium flux upto 10 uM incubated for 60 mins followed by incubation for 30 mins in dark by Flou-4 dye based FLIPR assay; type: functional, cell-based; details: time 90.0 min
Chain of 5-hydroxytryptamine receptor 2A (Homo sapiens) (P28223 whole entry): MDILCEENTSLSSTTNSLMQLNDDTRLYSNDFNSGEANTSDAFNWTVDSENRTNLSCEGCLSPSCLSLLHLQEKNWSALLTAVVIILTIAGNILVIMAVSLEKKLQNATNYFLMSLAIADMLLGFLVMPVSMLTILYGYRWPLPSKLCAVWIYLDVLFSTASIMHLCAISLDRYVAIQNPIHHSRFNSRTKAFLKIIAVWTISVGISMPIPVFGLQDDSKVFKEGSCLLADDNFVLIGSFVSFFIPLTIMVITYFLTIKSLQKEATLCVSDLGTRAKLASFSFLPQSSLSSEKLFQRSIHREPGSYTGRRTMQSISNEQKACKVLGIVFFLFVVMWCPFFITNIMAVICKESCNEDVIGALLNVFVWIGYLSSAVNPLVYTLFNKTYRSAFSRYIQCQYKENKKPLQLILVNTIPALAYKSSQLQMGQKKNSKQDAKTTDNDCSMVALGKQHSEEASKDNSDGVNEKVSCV

[3] = target: T1, 5-hydroxytryptamine receptor 2C (Homo sapiens); test: Partial agonist activity at Rluc-tagged 5-HT2CR (unknown origin) transfected in HEK293T cells assessed as beta-arrestin-2 recruitment incubated for 10 mins by coelenterazine 400a based BRET assay; type: functional, cell-based
[4] = target: T2, 5-hydroxytryptamine receptor 2C (Homo sapiens, UniProt P28335); test: Partial agonist activity at human 5-HT2CR expressed in human Flp-In-T-REx-293 cells assessed as increase in calcium flux incubated for 60 mins followed by incubation for 30 mins in dark by Flou-4 dye based FLIPR assay; type: functional, cell-based
T2 sequence (P28335 whole entry): T1 sequence (whole entry)

hERG (KCNH2) [5] = target: T3, hERG (KCNH2) (Homo sapiens, UniProt Q12809); test: Inhibition of hERG expressed in CHO cells at 10 uM by automated patch clamp method relative to control; type: toxicity, cell-based; details: CHO cells that express hERG
T3 sequence (Q12809 whole entry): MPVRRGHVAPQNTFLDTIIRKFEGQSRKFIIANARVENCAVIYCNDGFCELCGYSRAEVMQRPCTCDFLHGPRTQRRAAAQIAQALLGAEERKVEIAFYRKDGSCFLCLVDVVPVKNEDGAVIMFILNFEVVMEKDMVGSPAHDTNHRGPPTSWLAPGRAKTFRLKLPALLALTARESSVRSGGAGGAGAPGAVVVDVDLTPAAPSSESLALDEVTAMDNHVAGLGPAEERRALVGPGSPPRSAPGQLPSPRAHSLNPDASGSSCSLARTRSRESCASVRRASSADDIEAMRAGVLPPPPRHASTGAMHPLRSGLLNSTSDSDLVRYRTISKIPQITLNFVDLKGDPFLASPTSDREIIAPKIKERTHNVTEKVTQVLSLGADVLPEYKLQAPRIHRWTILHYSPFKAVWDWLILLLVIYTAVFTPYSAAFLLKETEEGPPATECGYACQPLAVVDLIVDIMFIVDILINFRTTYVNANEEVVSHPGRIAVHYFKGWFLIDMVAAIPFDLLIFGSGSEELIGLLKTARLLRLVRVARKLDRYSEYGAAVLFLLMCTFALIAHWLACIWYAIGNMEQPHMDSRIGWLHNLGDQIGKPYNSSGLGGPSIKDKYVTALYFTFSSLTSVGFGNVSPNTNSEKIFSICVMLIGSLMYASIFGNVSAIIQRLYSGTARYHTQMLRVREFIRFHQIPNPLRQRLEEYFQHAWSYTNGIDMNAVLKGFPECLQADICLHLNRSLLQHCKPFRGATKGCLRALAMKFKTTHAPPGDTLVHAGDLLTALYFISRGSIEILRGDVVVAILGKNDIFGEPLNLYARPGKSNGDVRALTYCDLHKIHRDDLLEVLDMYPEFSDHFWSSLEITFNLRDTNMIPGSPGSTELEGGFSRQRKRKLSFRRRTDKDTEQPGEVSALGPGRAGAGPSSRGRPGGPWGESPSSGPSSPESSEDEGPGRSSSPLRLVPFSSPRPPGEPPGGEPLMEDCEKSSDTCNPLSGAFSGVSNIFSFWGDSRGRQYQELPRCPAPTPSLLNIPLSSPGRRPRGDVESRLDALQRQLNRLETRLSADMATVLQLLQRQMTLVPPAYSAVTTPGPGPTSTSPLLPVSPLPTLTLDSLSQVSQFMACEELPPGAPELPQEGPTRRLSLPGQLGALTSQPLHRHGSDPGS

[6] = target: T1, 5-hydroxytryptamine receptor 2C (Homo sapiens); test: Partial agonist activity at human 5-HT2CR expressed in human Flp-In-T-REx-293 cells assessed as increase in calcium flux upto 10 uM incubated for 60 mins followed by incubation for 30 mins in dark by Flou-4 dye based FLIPR assay; type: functional, cell-based; details: time 90.0 min
[7] = target: T4, 5-hydroxytryptamine receptor 2B (Homo sapiens, UniProt P41595); test: Partial agonist activity at human 5-HT2BR expressed in human Flp-In-T-REx-293 cells assessed as increase in calcium flux incubated for 60 mins followed by incubation for 30 mins in dark by Flou-4 dye based FLIPR assay; type: functional, cell-based
T4 sequence (P41595 whole entry): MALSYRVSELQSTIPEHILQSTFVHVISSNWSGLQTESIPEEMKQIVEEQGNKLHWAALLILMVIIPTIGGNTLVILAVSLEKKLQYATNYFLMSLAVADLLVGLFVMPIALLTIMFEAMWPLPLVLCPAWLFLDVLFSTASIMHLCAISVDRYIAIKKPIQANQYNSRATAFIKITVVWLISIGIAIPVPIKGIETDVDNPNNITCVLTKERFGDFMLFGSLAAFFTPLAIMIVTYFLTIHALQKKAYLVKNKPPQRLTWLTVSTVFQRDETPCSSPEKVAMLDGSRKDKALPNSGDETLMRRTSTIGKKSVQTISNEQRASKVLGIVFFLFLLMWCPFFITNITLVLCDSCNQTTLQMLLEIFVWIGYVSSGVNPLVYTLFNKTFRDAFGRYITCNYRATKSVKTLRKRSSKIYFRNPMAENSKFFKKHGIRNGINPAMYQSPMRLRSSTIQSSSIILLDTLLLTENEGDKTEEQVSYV

[8] = target: T4, 5-hydroxytryptamine receptor 2B; test: Partial agonist activity at human 5-HT2BR expressed in human Flp-In-T-REx-293 cells assessed as increase in calcium flux by measuring maximal efficacy incubated for 60 mins followed by incubation for 30 mins in dark by Flou-4 dye based FLIPR assay relative to control; type: functional, cell-based; details: time 90.0 min
[9] = target: T4, 5-hydroxytryptamine receptor 2B; test: Partial agonist activity at human 5-HT2BR expressed in human Flp-In-T-REx-293 cells assessed as increase in calcium flux upto 10 uM incubated for 60 mins followed by incubation for 30 mins in dark by Flou-4 dye based FLIPR assay; type: functional, cell-based; details: time 90.0 min
hERG (KCNH2) [10] = target: T3, hERG (KCNH2); test: Inhibition of hERG at 10 uM relative to control; type: toxicity
[11] = target: T1, 5-hydroxytryptamine receptor 2C (Homo sapiens); test: Agonist activity at human 5-HT2CR expressed in human Flp-In-T-REx-293 cells assessed as increase in calcium flux by measuring maximal efficacy incubated for 60 mins followed by incubation for 30 mins in dark by Flou-4 dye based FLIPR assay; type: functional, cell-based; details: filed as agonist, time 90.0 min
[12] = target: T2, 5-hydroxytryptamine receptor 2C; test: Agonist activity at human 5-HT2CR expressed in human Flp-In-T-REx-293 cells assessed as increase in calcium flux incubated for 60 mins followed by incubation for 30 mins in dark by Flou-4 dye based FLIPR assay; type: functional, cell-based

`Clc1ccc2c(c1)OC1(C=C2)CCNCC1` was tested, and the Emax ([1]; filed as partial agonist) was 71.1%, the Activity [2] was “inactive” and the Activity [3] was “inactive”. For the same compound, the EC50 ([4]; read-out: EC50) was 0.121 µM and the inhibition at 10 µM (hERG (KCNH2) [5]) was 43.9%.
With `C[C@H]1CC2(C=Cc3ccc(Cl)cc3O2)CCN1` (stereo in doubt; 31a) the Activity [6] was “inactive”.
With `Cc1ccc2c(c1)C=CC1(CCNCC1)O2` the Activity [6] was “inactive”.
`Cc1cccc2c1C=CC1(CCNCC1)O2` showed an Emax ([1]; filed as partial agonist) of 55.2% and an EC50 ([4]; read-out: EC50) of 0.17 µM.
With `O=C1CC2(CCNCC2)Oc2ccccc21` the Activity [6] was “inactive”.
For `Clc1ccc2c(c1)OC1(C=C2)CCCNC1` (stereo not given), the Activity [6] was “inactive”.
Work on `CC1CNCCC12C=Cc1ccc(Cl)cc1O2` (stereo in doubt; 29a) [listing 1 of 2 here] yielded an Emax ([1]; filed as partial agonist) of 80%.
`Clc1cccc2c1OC1(C=C2)CCNCC1` was tested, and the Emax ([1]; filed as partial agonist) was 75.7%, the Activity [2] was “inactive” and the EC50 ([4]; read-out: EC50) was 0.15 µM. It also gave an EC50 [7] of 0.47 µM and an Emax [8] of 30.9%.
In the case of `COc1ccc2c(c1)OC1(C=C2)CCNCC1`, the Emax ([1]; filed as partial agonist) is reported as 50.4% and the EC50 ([4]; read-out: EC50) is reported as 3.74 µM.
For `Fc1cccc2c1OC1(C=C2)CCNCC1`, the Emax ([1]; filed as partial agonist) was 64.4% and the EC50 ([4]; read-out: EC50) was 0.929 µM.
With `COc1ccc2c3c1-c1ccccc1CC3NCC2` (stereo not given) the Activity [2] was “inactive”, the EC50 ([4]; read-out: pEC50 (converted)) was 0.1 µM and the Activity [9] was “inactive”. It also gave an inhibition at 10 µM (hERG (KCNH2) [10]) of 92.7%.
`C[C@H]1CC2(C=Cc3ccc(Cl)cc3O2)CCN1` (stereo in doubt; 31b) was tested, and the Activity [6] was “inactive”.
`CC1CNCCC12C=Cc1ccc(Cl)cc1O2` (stereo in doubt; 29a) [listing 2 of 2 here] was tested, and the EC50 ([4]; read-out: EC50) was 0.476 µM.
For `Clc1ccc2c(c1)OC1(C=C2)CC2CCC(C1)N2` (stereo not given), the Activity [6] was “inactive”.
Work on `Cc1cccc2c1OC1(C=C2)CCNCC1` yielded an Emax [1] of 22.4% and an EC50 ([4]; read-out: EC50) of 2.06 µM.
For `Clc1ccc2c(c1)OC1(C=C2)CCCNCC1` (stereo not given), the Emax [1] was 26.2% and the EC50 ([4]; read-out: EC50) was 3.11 µM.
In the case of `Fc1ccc2c(c1)OC1(C=C2)CCNCC1`, the Emax [11] is reported as 91.4% and the EC50 [12] is reported as 0.158 µM.
`C[C@@H]1CC2(C=Cc3ccc(Cl)cc3O2)CCN1` (stereo not given in full) was tested, and the Emax ([1]; filed as partial agonist) was 82.5%, the EC50 ([4]; read-out: EC50) was 0.95 µM and the Activity [6] was “inactive”.
With `OC1CC2(CCNCC2)Oc2ccccc21` (stereo not given) the Activity [6] was “inactive”.
Work on `Brc1ccc2c(c1)OC1(C=C2)CCNCC1` yielded an Emax ([1]; filed as partial agonist) of 72.6% and an EC50 ([4]; read-out: EC50) of 0.488 µM.
With `Clc1ccc2c(c1Cl)OC1(C=C2)CCNCC1` the Activity [6] was “inactive”.
With `Cc1ccc2c(c1)OC1(C=C2)CCNCC1` the Activity [6] was “inactive”.
Work on `NC1CCC2(C=Cc3ccc(Cl)cc3O2)CC1` (stereo not given) yielded an Emax ([1]; filed as partial agonist) of 69% and an EC50 ([4]; read-out: EC50) of 3.38 µM.
With `Fc1ccc2c(c1)C=CC1(CCNCC1)O2` the Emax ([1]; filed as partial agonist) was 49.5% and the EC50 ([4]; read-out: EC50) was 3.06 µM.
For `CC1CNCCC12C=Cc1ccc(Cl)cc1O2` (stereo in doubt; 29b) [listing 1 of 2 here], the EC50 ([4]; read-out: EC50) was 2.65 µM.
Work on `Clc1ccc2c(c1)OC1(C=C2)CCNC1` (stereo not given) yielded an Emax ([1]; filed as partial agonist) of 44.7% and an EC50 ([4]; read-out: EC50) of 0.33 µM.
In the case of `Clc1ccc2c(c1)C=CC1(CCNCC1)O2`, the Emax [1] is reported as 36.3%, the EC50 ([4]; read-out: EC50) is reported as 0.215 µM and the EC50 ([4]; read-out: pEC50 (converted)) is reported as 2 µM.
For `c1ccc2c(c1)CCC1(CCNCC1)O2`, the Activity [6] was “inactive”.
With `COc1ccc2c(c1)C=CC1(CCNCC1)O2` the Activity [6] was “inactive”.
With `CC1CNCCC12C=Cc1ccc(Cl)cc1O2` (stereo in doubt; 29b) [listing 2 of 2 here] the Emax ([1]; filed as partial agonist) was 73.7%.
Work on `Clc1ccc2c(c1)OC1(C=C2)CNC1` yielded an Emax ([1]; filed as partial agonist) of 58.5% and an EC50 ([4]; read-out: EC50) of 2.49 µM.
In the case of `Clc1cccc2c1C=CC1(CCNCC1)O2`, the Activity [2] is reported as “inactive”, the Emax [11] is reported as 81.9% and the EC50 [12] is reported as 0.031 µM. The EC50 [7] was 0.0684 µM and the Emax [8] was 34.1%.
`C1=CC2(CCNCC2)Oc2ccccc21` was tested, and the Emax ([1]; filed as partial agonist) was 85.9%, the Activity [2] was “inactive” and the Activity [3] was “inactive”. It also gave an EC50 ([4]; read-out: EC50) of 0.147 µM, an EC50 [7] of 0.897 µM and an Emax [8] of 19.4%.
`Clc1cc(Cl)c2c(c1)OC1(C=C2)CCNCC1` was tested, and the Activity [6] was “inactive”.
With `COc1cccc2c1C=CC1(CCNCC1)O2` the Activity [6] was “inactive”.
